Patent US20160304957A1, “TREATMENT AND MODULATION OF GENE EXPRESSION AND SKIN AGING” (DSM NUTRITIONAL PRODUCTS LTD., priority 2006, published 2016)

Key:
HaCaT cells = experiment: Depletion of cellular β-carotene content by UVA irradiation, HPLC; type: in vitro ADME, human; settings: 270 kJ/m^2 UVA
Description: (§1) On day 3 of the experiment, cells were washed six times with Ca/Mg-free PBS containing 2% BSA, and then irradiated with light with a Hönle sun lamp Sol 500 (Dr. Hönle, Plannegg, Germany) at a dose of 270 kJ/m^2 in Ca/Mg-free PBS (2 hour exposure time at […]). The experimental schedule was chosen because the cells had optimal UVA sensitivity after 48 hours in culture. […] Confluent cultures were much less sensitive to irradiation.

MMP-10 = experiment: QRT-PCR gene expression in HaCaT cells with or without UVA; type: cell-based, human
Description: (§2) HaCaT cells were obtained from Prof. Fusenig, German Cancer Research Centre, Heidelberg. […] The accuracy of cell counting was approximately 99%.
as §1
(§3) After irradiation, the cells were supplied with fresh β-carotene-containing serum-free medium and kept in the incubator at 37° C., 5% CO2 until harvest of the samples. In experiments in which the half-life of ^1O2 was prolonged by D2O to enhance its effect, PBS was prepared in D2O, instead of in H2O, as it was done for the standard conditions described above. Cells were washed twice in D2O-PBS prior to irradiation in D2O-PBS. After irradiation, cells were maintained with fresh β-carotene-containing serum-free medium. Sham controls were treated in an identical manner, by placing them under the solar simulator but shielded from light.
(§4) Total RNA was isolated by using Trizol™ (Invitrogen, Basel, Switzerland) according to the instructions of the manufacturer. Random-primed cDNA was synthesized using the Superscript pre-amplification system for first strand cDNA synthesis (Invitrogen).
(§5) cDNA corresponding to 10 ng total RNA was used as template to quantify the relative RNA expression of the genes of interest by TaqMan® real time PCR.
(§6) The PCR analyses were carried out in triplicate and in a multiplex setup, using 18S rRNA as a calibrator gene. The rRNA primers were used at a final concentration of 50 nM, the probe at 100 nM. For quantification of the genes of interest, the primer concentrations were optimized for sensitivity of template detection. […] PCR reactions were carried out for 40 cycles of 95° C. for 15 seconds and 60° C. for 1 minute in an ABI7700 (Applied Biosystems, Rotkreuz, Switzerland). Regulation of gene expression was calculated as described in user bulletin #2 provided by the manufacturer. A threshold cycle (“CT”) is the first PCR cycle in which an amplification signal is detected. Expression levels are given as δCT values. The δCT value describes the level of gene expression as the average PCR cycle, in which the gene of interest was detected first (CT value), subtracted by the CT value of the calibrator gene 18S rRNA (CTgene of interest−CTcalibrating gene), 18S rRNA served as a measure for the amount of template in the reaction. Routinely, 18S rRNA was detected between PCR cycle 12 and 13 (SE=standard error) A low δCT corresponds to a high mRNA level.

MMP-1 = experiment: as above; type: cell-based, human
Description: as §2, §1, §3, §4, §5, §6

MMP-2 = experiment: as above; type: cell-based, human
Description: as §2, §1, §3, §4, §5, §6

MMP-3 = experiment: as above; type: cell-based, human
Description: as §2, §1, §3, §4, §5, §6

MMP-9 = experiment: as above; type: cell-based, human
Description: as §2, §1, §3, §4, §5, §6

RXRγ = experiment: as above; type: cell-based, human
Description: as §2, §1, §3, §4, §5, §6
HaCaT cells were pretreated for 2 days with 0.5, 1.5 or 3 μM β-carotene. The cells were irradiated with UVA (270 kJ/m^2) either in D2O-containing PBS or in H2O-containing PBS, to analyze ^1O2 inducibility of genes. Gene expression 5 hours after UVA irradiation was analyzed by QRT-PCR. Values are geometric means±standard error from three independent experiments. Upregulations greater than 1.5-fold are labelled in bold black, downregulations below 0.66-fold are bold grey.

GADD153 = experiment: QRT-PCR confirmation of gene regulation in HaCaT cells; type: cell-based, human; settings: 5 hours after UVA
Description: (§7) FIGS. 9A-9C show β-carotene-induced inhibition of integrinα6 transcription in irradiated and unirradiated HaCaT cells (FIG. 9A) and enhancement of UVA-induced GADD34 (FIG. 9B) and GADD153 transcription (FIG. 9C). Cells were supplemented with β-carotene for 2 days prior to UVA irradiation (270 kJ/m^2) either in normal PBS or D2O-PBS. Gene expression 5 hours after irradiation was determined by quantitative real time polymerase chain reaction. (“QRT-PCR”). Values are geometric mean±standard error of three experiments.
(§8) Key gene regulation was confirmed in three independent cell irradiation experiments using TaqMan® QRT-PCR as described. In these experiments, cells were pretreated with 0.5, 1.5, or 3 μM β-carotene, to analyze for dose-dependent β-carotene effects. In addition, cells were irradiated either in D2O-containing PBS or in H2O-containing PBS, to analyze for the ^1O2 inducibility of genes.

GADD34 = experiment: as above; type: cell-based, human; settings: 5 hours after UVA
Description: as §7, §8

integrinα6 = experiment: as above; type: cell-based, human; settings: β-carotene, unirradiated cells
Description: as §7, §8

[1] = system: retinoic acid response elements (RAREs); experiment: RA-dependent reporter gene assay pGL3 (RARE)5 tk luc in HaCaT cells; type: cell-based, human
Description: HaCaT cells were transiently transfected with the reporter construct pGL3 (RARE)5 tk luc, containing five DR5-type retinoic acid response elements (“RAREs”). Luciferase activity was determined after 40 hours treatment with β-carotene. Values are means±standard error from two experiments with four replicates each.
HaCaT cells were seeded at a density of 3×10^6 cells/well in 6 well plates (BD Biosciences, Basel, Switzerland) in FAD medium containing 2% NuSerum. The cells were transfected the next day using 1 μg reporter plasmid (pGL3 (RARE)5 tk luc) and 5 μl Lipofectin (1 μg/μL; Invitrogen, Basel, Switzerland) per well. The RARE is a DR5 element identical to the wild type element of the RARβ2 promoter. The spacing between the DR5 sites is 25 nucleotides. The transfections were performed for 7.5 hours in serum-free FAD medium according to the manufacturer's protocol. […] Transactivation of the reporter gene was determined after 40 hours of β-carotene treatment.
To generate the RA standard curve, 9-cis RA and all-trans RA were used together at concentrations ranging from 10^−10 to 10^−8 M each. […] Relative luciferase units (RLU) were quantified in a luminoskan reader (Thermo Labsystems, Vantaa, Finland), and corrected by protein concentrations as determined with the BCA assay (Pierce, Rockford, USA).

caspase-3 = experiment: Caspase-3 activity, CaspACE Assay System; type: cell-based, human
Description: Cells were supplemented with β-carotene for 2 days and prior to UVA irradiation (270 kJ/m^2). Caspase-3 activity was determined at 5 hours after irradiation. Values are mean±standard error of an experiment with four replicates.
Caspase-3 activity 5 hours after UVA irradiation was quantified in five separate experiments using the CaspACE™ Assay System (Promega/Catalys, Switzerland).

[2] = β-carotene 1.5 μM, with or without UVA

SMILES: CC1=C(/C=C/C(C)=C/C=C/C(C)=C/C=C/C=C(C)/C=C/C=C(C)/C=C/C2=C(C)CCCC2(C)C)C(C)(C)CCC1 [β-carotene, All-E-β-carotene]
- effect of UVA on cellular β-carotene content (HaCaT cells; 0.5 μM β-carotene 2 days): did not reduce
- cellular β-carotene stores remaining after UVA irradiation (HaCaT cells; 1.5 or 3 μM β-carotene 2 days): about 13%
- basal MMP-10 expression (MMP-10; unirradiated cells): tended to reduce
- UVA induction of MMP-10 (MMP-10; β-carotene 1.5 μM, UVA alone about 3 fold): approx. 2.5 fold
- MMP-10 induction by UVA and D2O (MMP-10; β-carotene 0.5, 1.5, 3 μM): opposed MMP-10 induction by UVA and D2O in a dose-dependent fashion
- basal MMP-1 RNA expression (MMP-1; unirradiated cells): tended to reduce
- UVA-induced MMP-1 induction (MMP-1; β-carotene 1.5 μM, 5 hours after UVA, UVA alone 1.3 fold): 0.9 fold
- UVA/D2O-induced MMP-1 induction (MMP-1; β-carotene 0.5, 1.5, 3 μM): significantly and dose-dependently reduced
- MMP-2 expression (MMP-2; UVA/D2O experiments): no significant effect
- MMP-2 expression (MMP-2; [2]): did not influence their expression significantly
- MMP-3 induction by UVA (MMP-3; presence or absence of D2O): prevented MMP-3 induction
- UVA-induction of MMP-3 (MMP-3; β-carotene 1.5 μM, UVA alone approx. 49 fold): 27 fold
- MMP-9 expression (MMP-9; UVA/D2O experiments): no significant effect
- MMP-9 expression, tendency (MMP-9; irradiated and unirradiated cells): tended to lower expression
- MMP-9 expression (MMP-9; [2]): did not influence their expression significantly
- basal or UVA-regulated expression level of RXRγ (RXRγ): no significant effect
- RXRγ fold induction (RXRγ; D2O, UVA/βC 0.5 μM): 1.72 fold
- RXRγ fold induction (RXRγ; D2O, UVA/βC 1.5 μM): 2.70 fold
- RXRγ fold induction (RXRγ; D2O, UVA/βC 3 μM): 1.57 fold
- RXRγ fold induction (RXRγ; D2O, βC 0.5 μM): 1.47 fold
- RXRγ fold induction (RXRγ; D2O, βC 1.5 μM): 2.78 fold
- RXRγ fold induction (RXRγ; D2O, βC 3 μM): 2.57 fold
- RXRγ fold induction (RXRγ; H2O, UVA/βC 0.5 μM): 0.61 fold
- RXRγ fold induction (RXRγ; H2O, UVA/βC 1.5 μM): 0.08 fold
- RXRγ fold induction (RXRγ; H2O, UVA/βC 3 μM): 0.67 fold
- RXRγ fold induction (RXRγ; H2O, βC 0.5 μM): 0.39 fold
- RXRγ fold induction (RXRγ; H2O, βC 1.5 μM): 0.77 fold
- RXRγ fold induction (RXRγ; H2O, βC 3 μM): 0.33 fold
- UVA-induced GADD153 transcription (GADD153): enhancement
- UVA-induced GADD34 transcription (GADD34): enhancement
- integrinα6 transcription (integrinα6): downregulation
- activation of the luciferase reporter ([1]; 1 or 3 μM β-carotene, 40 hours): comparable to what was achieved after treating the cells with a combination of all-trans RA and 9-cis RA at 10 nM each
- RARE-dependent gene activation after UVA irradiation, relative to unirradiated ([1]; cells irradiated with UVA prior to measurement): about 70%
- caspase-3 activation (caspase-3; β-carotene alone, unirradiated): Neither UVA nor β-carotene alone activated caspase-3
- caspase-3 activity (caspase-3; β-carotene with UVA 270 kJ/m^2, 5 hours after irradiation): induce caspase-3 activity in a dose-dependent manner
